One data set has as its system HEp-2. Nature of the data set: Cytotoxicity against human HEp-2 cells assessed as reduction in cell viability incubated for 72 hrs by MTT assay. Format: functional, cell-based. To be noted: HEp-2, 72 h. A general note: Formazan colour is commonly taken as a measure of viable cells.
In the next data set the test system is NCI-H292. The data set is described as follows: Cytotoxicity against human NCI-H292 cells assessed as reduction in cell viability incubated for 72 hrs by MTT assay. Format: functional, cell-based. To be noted: NCI-H292, 72 h.
A short description of data set [1]: Cytotoxicity against monkey LLC-MK2 cells assessed as reduction in cell viability incubated for 96 hrs by trypan blue assay. To be noted: rhesus monkey, read-out: LC50. Format: toxicity, cell-based, Macaca mulatta.
Data set [2] has as its system Trypanosoma cruzi. The data set is described as follows: Antitrypanosomal activity against bloodstream form of Trypanosoma cruzi Y trypomastigotes infected in albino mouse assessed as reduction in viable parasite in blood by Neubauer counting chamber method. The data set is classed as functional, organism-based.
For the next data set, the system named is MCF7. Nature of the data set: Cytotoxicity against human MCF7 cells assessed as reduction in cell viability incubated for 72 hrs by MTT assay. The data set is classed as functional, cell-based. To be noted: MCF7, 72 h.
In data set [3] the test system is Trypanosoma cruzi. Nature of the data set: Antitrypanosomal activity against bloodstream form of Trypanosoma cruzi Y trypomastigotes infected in Swiss Webster mouse assessed as reduction in viable parasite in blood incubated for 24 hrs by Neubauer counting chamber based light microscopic analysis. Format: functional, organism-based.
The next data set relates to PC-3. The data set is described as follows: Cytotoxicity against human PC-3 cells assessed as reduction in cell viability incubated for 72 hrs by MTT assay. The data set is classed as functional, cell-based. To be noted: PC-3, 72 h.
The test system of a further data set is B16-F10. Nature of the data set: Cytotoxicity against mouse B16-F10 cells assessed as reduction in cell viability incubated for 72 hrs by MTT assay. Format: functional, cell-based. To be noted: B16-F10, 72 h.
Data set [4] has as its system HCT-116. The data set is described as follows: Cytotoxicity against human HCT-116 cells assessed as reduction in cell viability incubated for 72 hrs by MTT assay. Format: functional, cell-based. To be noted: HCT-116, 72 h.
The next data set has as its system SNB-19. The data set is described as follows: Cytotoxicity against human SNB-19 cells assessed as reduction in cell viability incubated for 72 hrs by MTT assay. The data set is classed as functional, cell-based. To be noted: SNB-19, 72 h.
A further data set concerns SF-295. The data set is described as follows: Cytotoxicity against human SF-295 cells assessed as reduction in cell viability by MTT assay. The data set is classed as functional, cell-based.
Data set [5] relates to HCT-116. Nature of the data set: Cytotoxicity against human HCT-116 cells assessed as reduction in cell viability by MTT assay. The data set is classed as functional, cell-based.
The test system of the next data set is OVCAR-8. The data set is described as follows: Cytotoxicity against human OVCAR-8 cells assessed as reduction in cell viability by MTT assay. Format: functional, cell-based.
A further data set relates to HL-60. Nature of the data set: Cytotoxicity against human HL-60 cells assessed as reduction in cell viability by MTT assay. The data set is classed as functional, cell-based.
Data set [6] in a line: Cytotoxicity against mouse L929 cells assessed as reduction in cell viability incubated for 72 hrs by MTT assay. The data set is classed as toxicity, cell-based.
For a further data set, the system named is HepG2. The data set is described as follows: Cytotoxicity against human HepG2 cells assessed as reduction in cell viability incubated for 48 hrs by MTT assay. Format: functional, cell-based. To be noted: HepG2, 48 h.
Another data set concerns HeLa. The data set is described as follows: Cytotoxicity against human HeLa cells assessed as reduction in cell viability incubated for 48 hrs by MTT assay. The data set is classed as functional, cell-based.
A further data set deals with KB. Nature of the data set: Cytotoxicity against human KB cells assessed as reduction in cell viability incubated for 48 hrs by MTT assay. Format: functional, cell-based.
A further data set concerns Enterococcus faecalis. The data set is described as follows: Antibacterial activity against Enterococcus faecalis clinical isolates assessed as bacterial growth inhibition by broth macrodilution method. Format: functional.
In another data set the test system is Sporothrix schenckii. Nature of the data set: Antifungal activity against Sporothrix schenckii assessed as fungal growth inhibition incubated for 48 hrs by CLSI-based broth microdilution assay. The data set is classed as functional. A general note: Broth dilution looks for growth in wells or tubes with falling amounts of substance.
In the next data set the test system is Sporothrix. Nature of the data set: Antifungal activity against Sporothrix brasiliensis assessed as fungal growth inhibition incubated for 48 hrs by CLSI-based broth microdilution assay. Format: functional.

Values after ≈ are worked out from the molar mass of the structure shown.

In the case of `CC1(C)OC2=C(C(=O)C(=O)c3ccccc32)C1CO` (centres undefined), the half-maximal inhibitory concentration (IC50) in the data set with HEp-2 and with NCI-H292 was 0.46 µM in each case.
For the compound `CCCCCCCCC1CC2=C(O1)c1ccccc1C(=O)C2=O` (centres undefined), the CC50 at 96 h in data set [1] amounted to 2200 µM. For the same compound, the IC50 – broadly, the point on the concentration scale where inhibition reaches its midpoint – in the data set with Trypanosoma cruzi [2] turned out to be 86.7 µM.
Consider `CC1(C)OC2=C(CC1[Se]c1ccc(F)cc1)C(=O)C(=O)c1ccccc12` (centres undefined), for which the half-maximal inhibitory concentration (IC50) in the data set on MCF7 turned out to be 0.95 µM; in the data set with Trypanosoma cruzi [3], 38.3 µM; in the data set on PC-3, 0.95 µM; with B16-F10 it was 0.95 µM; in the data set with HCT-116 [4] it was 0.95 µM; with SNB-19 it was 0.95 µM.
In the case of `CO[C@@H]1O[C@H](COC2C3=C(OC2(C)C)c2ccccc2C(=O)C3=O)[C@H]2OC(C)(C)O[C@@H]12` (some centres undefined), the concentration for half-maximal inhibition (IC50) in the data set on SF-295, in the data set with HCT-116 [5], in the data set on OVCAR-8 and in the data set with HL-60 was 0.16 µM each time.
As to `Cc1ccc(-c2cc(NC3C4=C(OC3(C)C)c3ccccc3C(=O)C4=O)n(-c3ccccc3)n2)cc1` (centres undefined), the IC50 with SF-295 was determined as 1.05 µM; in the data set on HCT-116 [5] it was 0.72 µM; in the data set on OVCAR-8, 0.99 µM; in the data set on HL-60, 0.34 µM.
Turning to `CC(=O)OCC1CC2=C(OC1(C)C)c1ccccc1C(=O)C2=O` (centres undefined), the values for the IC50 in the data set on MCF7, in the data set on HEp-2 and with NCI-H292 were 2.73 µM, 2.26 µM and 2.26 µM, respectively.
Regarding `CC1(C)OC2=C(CC1CO)C(=O)C(=O)c1ccccc12` (centres undefined), the IC50 in the data set on MCF7, in the data set with HEp-2 and in the data set on NCI-H292 was 5.51 µM each time.
For the compound `O=C1C(=O)c2ccccc2C2=C1CC(C[Se]c1cccs1)O2` (centres undefined), the IC50 in the data set on MCF7, in the data set on PC-3, in the data set with B16-F10, with HCT-116 [4] and with SNB-19 was 1.06 µM in each case. Also, the IC50 at 72 h in [6] was found to be 1.06 µM.
For `CC1COC2=C(C1)C(=O)C(=O)c1ccccc12` (centres undefined), the 50% inhibitory concentration (IC50) in the data set with HepG2, with HeLa and with KB was 0.92 µM each time.
Regarding `O=C1C(=O)c2ccccc2C2=C1CC(O)CO2` (centres undefined), the 50% inhibitory concentration (IC50) with HepG2, with HeLa and in the data set on KB was 7.61 µM throughout.
`O=C(Cn1ccnc1[N+](=O)[O-])NCc1ccccc1` [BENZNIDAZOLE]: the CC50 at 96 h in data set [1] came out at 324 µM. The IC50 in the data set on Trypanosoma cruzi [3] came out at 104 µM.
Turning to `O=C(N[C@H](CO)[C@H](O)c1ccc([N+](=O)[O-])cc1)C(Cl)Cl` [CHLORAMPHENICOL], the MIC – broadly, the lowest concentration that inhibits growth of the organism – with Enterococcus faecalis was 12 µg/mL (≈ 37.1 µM).
As for `CCC(C)n1ncn(-c2ccc(N3CCN(c4ccc(OCC5COC(Cn6cncn6)(c6ccc(Cl)cc6Cl)O5)cc4)CC3)cc2)c1=O` (centres undefined) [ITRACONAZOLE], the MIC in the data set with Sporothrix schenckii and with Sporothrix was 0.125 µM (≈ 0.0882 µg/mL) in each case.
As for `CC1(C)COC2=C(C1)C(=O)C(=O)c1ccccc12` [RHINACANTHONE], the IC50 with HepG2, in the data set on HeLa and in the data set with KB was 6.9 µM throughout.

The values above are taken from ChEMBL document CHEMBL5104093, “A comprehensive review on β-lapachone: Mechanisms, structural modifications, and therapeutic potentials” (Eur J Med Chem, 2021).
